According to PubChem BioAssay AID248 (DTP/NCI, 2004):
“And” between values parts separate entries of the source, which are not always exact repeats. Identical values can stand only once. Inconclusive results and toxic doses are left out. Cut-off read from the data, not from the text of the source: active = T/C of 150% or more; inactive = T/C below 125%.

System: L1210 leukemia ip in BDF1 mice, survival T/C
Assay: NCI In Vivo Anticancer Drug Screen. Data for tumor model L1210 Leukemia (intraperitoneal) in B6D2F1 (BDF1) mice
Conditions: endpoint: mean survival time, higher = longer survival
In short: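 Tumor was transplanted into mice, which were then dosed with test compound or vehicle alone. Survival was recorded for each group, and the treated figure was expressed relative to the control figure.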

[1] = dose: 100.0 mg/kg/injection, schedule: Q04DX003 (ip), vehicle: Klucel (hydroxypropylcellulose) (HPC)
[2] = dose: 200.0 mg/kg/injection, schedule: Q04DX003 (ip), vehicle: Klucel (hydroxypropylcellulose) (HPC)
[3] = dose: 400.0 mg/kg/injection, schedule: Q04DX003 (ip), vehicle: Klucel (hydroxypropylcellulose) (HPC)
[4] = dose: 100.0 mg/kg/injection, schedule: Q01DX009 (ip), vehicle: Klucel (hydroxypropylcellulose) (HPC)
[5] = dose: 200.0 mg/kg/injection, schedule: Q01DX009 (ip), vehicle: Klucel (hydroxypropylcellulose) (HPC)
[6] = dose: 5.0 mg/kg/injection, schedule: Q01DX009 (ip), vehicle: saline
[7] = dose: 100.0 mg/kg/injection, schedule: Q04DX002 (ip), vehicle: saline with Tween-80
[8] = dose: 200.0 mg/kg/injection, schedule: Q04DX002 (ip), vehicle: saline with Tween-80
[9] = dose: 100.0 mg/kg/injection, schedule: Q04DX002 (ip), vehicle: Klucel (hydroxypropylcellulose) (HPC)
[10] = dose: 200.0 mg/kg/injection, schedule: Q04DX002 (ip), vehicle: Klucel (hydroxypropylcellulose) (HPC)
[11] = dose: 400.0 mg/kg/injection, schedule: Q04DX002 (ip), vehicle: Klucel (hydroxypropylcellulose) (HPC)
[12] = dose: 100.0 mg/kg/injection, schedule: Q04DX003 (ip), vehicle: saline with Tween-80
[13] = dose: 200.0 mg/kg/injection, schedule: Q04DX003 (ip), vehicle: saline with Tween-80
[14] = dose: 400.0 mg/kg/injection, schedule: Q04DX003 (ip), vehicle: saline with Tween-80
[15] = dose: 100.0 mg/kg/injection, schedule: Q04DX003 (ip), vehicle: saline
[16] = dose: 200.0 mg/kg/injection, schedule: Q04DX003 (ip), vehicle: saline
[17] = dose: 400.0 mg/kg/injection, schedule: Q04DX003 (ip), vehicle: saline
[18] = dose: 100.0 mg/kg/injection, schedule: Q01DX009 (ip), vehicle: saline
[19] = dose: 200.0 mg/kg/injection, schedule: Q01DX009 (ip), vehicle: saline
[20] = dose: 400.0 mg/kg/injection, schedule: Q01DX009 (ip), vehicle: Klucel (hydroxypropylcellulose) (HPC)

Measured: T/C

Nc1nc(-c2ccccc2)c(CCCNC(=O)c2ccc([N+](=O)[O-])cc2)c(=O)[nH]1
inactive: [1] 93 % of control | [2] 93 % of control | [3] 90 % of control

CCCCCOc1ccc(C=Nc2ccc(C)cc2)cc1
inactive: [4] 98 % of control | [5] 103 % of control

CC/C(=N\N=C(N)N)c1ccc(NC(N)=S)cc1
inactive: [6] 100 % of control | dose: 10.0 mg/kg/injection, schedule: Q01DX009 (ip), vehicle: saline 105 % of control | dose: 20.0 mg/kg/injection, schedule: Q01DX009 (ip), vehicle: saline 107 % of control | dose: 25.0 mg/kg/injection, schedule: Q01DX009 (ip), vehicle: saline 107 % of control | dose: 40.0 mg/kg/injection, schedule: Q01DX009 (ip), vehicle: saline 103 % of control | dose: 80.0 mg/kg/injection, schedule: Q01DX009 (ip), vehicle: saline 117 % of control

Cn1nc(C(=O)O)c(=O)[nH]c1=O
inactive: dose: 100.0 mg/kg/injection, schedule: Q01DX Z (ip), vehicle: methylcellulose (MC) 97 % of control

O=C1c2cccc3c([N+](=O)[O-])ccc(c23)C(=O)N1CCc1ccccn1
inactive: [7] 106 % of control | [8] 95 % of control | dose: 400.0 mg/kg/injection, schedule: Q04DX002 (ip), vehicle: saline with Tween-80 103 % of control

NC(CSS(=O)(=O)O)=NCc1ccccn1
inactive: [9] 95 % of control | [10] 101 % of control | [11] 98 % of control

c1ccc(N(CC2CO2)CC2CO2)cc1 (stereo unspecified)
inactive: [12] 106 % of control | [13] 104 % of control | [14] 112 % of control

CC(=O)CCc1ccccc1
inactive: dose: 100.0 mg/kg/injection, schedule: Q01DX001 (ip), vehicle: carboxymethylcellulose (CMC) 101 % of control | dose: 200.0 mg/kg/injection, schedule: Q01DX001 (ip), vehicle: carboxymethylcellulose (CMC) 103 % of control | dose: 400.0 mg/kg/injection, schedule: Q01DX001 (ip), vehicle: carboxymethylcellulose (CMC) 101 % of control

N#CCCOCCOCCC#N
inactive: [15] 109 % of control | [16] 101 % of control | [17] 95 % of control

CCCCP(=O)(CCC)CCCC
inactive: [12] 99 % of control | [13] 94 % of control | [14] 87 % of control

NC(=O)N/C=C1\CCCOC1=O
inactive: dose: 50.0 mg/kg/injection, schedule: Q01DX009 (ip), vehicle: saline with Tween-80 98 % of control | dose: 100.0 mg/kg/injection, schedule: Q01DX009 (ip), vehicle: saline with Tween-80 93 % of control and 91 % of control | [12] 96 % of control | dose: 200.0 mg/kg/injection, schedule: Q01DX009 (ip), vehicle: saline with Tween-80 98 % of control and 109 % of control | [13] 104 % of control | dose: 400.0 mg/kg/injection, schedule: Q01DX009 (ip), vehicle: saline with Tween-80 109 % of control

CC(C)=C1C(=O)ON(c2ccccc2)C1=O
inactive: dose: 50.0 mg/kg/injection, schedule: Q01DX001 (ip), vehicle: Klucel (hydroxypropylcellulose) (HPC) 100 % of control | dose: 100.0 mg/kg/injection, schedule: Q01DX001 (ip), vehicle: Klucel (hydroxypropylcellulose) (HPC) 100 % of control | [1] 105 % of control | dose: 200.0 mg/kg/injection, schedule: Q01DX001 (ip), vehicle: Klucel (hydroxypropylcellulose) (HPC) 105 % of control | [2] 110 % of control | dose: 400.0 mg/kg/injection, schedule: Q01DX001 (ip), vehicle: Klucel (hydroxypropylcellulose) (HPC) 104 % of control | [3] 105 % of control

C=CCOc1ccnc(OCC=C)n1
inactive: [18] 108 % of control | [15] 105 % of control | [19] 101 % of control | [16] 102 % of control | dose: 400.0 mg/kg/injection, schedule: Q01DX009 (ip), vehicle: saline 87 % of control | [17] 105 % of control

CC(C)(C)C12OC1C(=O)C1(C(C)(C)C)OC1C2=O (stereo unspecified)
inactive: [4] 97 % of control | [5] 103 % of control | [20] 105 % of control

CN(Cc1ccc2nc(N)nc(N)c2c1)c1ccc(C(=O)NC(CCC(=O)O)C(=O)O)cc1 (stereo unspecified)
inactive: dose: 0.12 mg/kg/injection, schedule: Q01DX009 (ip), vehicle: other 123 % of control | dose: 2.1 mg/kg/injection, schedule: Q01DX009 (ip), vehicle: other 101 % of control | dose: 2.5 mg/kg/injection, schedule: Q01DX009 (ip), vehicle: saline 113 % of control | [6] 97 % of control | dose: 6.6 mg/kg/injection, schedule: Q01DX001 (ip), vehicle: other 119 % of control | dose: 6.6 mg/kg/injection, schedule: Q01DX001 (ip), vehicle: saline 119 % of control
active: dose: 0.5 mg/kg/injection, schedule: Q01DX009 (ip), vehicle: other 192 % of control | dose: 1.0 mg/kg/injection, schedule: Q01DX009 (ip), vehicle: other 190 % of control | dose: 1.25 mg/kg/injection, schedule: Q01DX009 (ip), vehicle: saline 154 % of control | dose: 5.0 mg/kg/injection, schedule: Q01DX001 (ip), vehicle: other 151 % of control | dose: 10.0 mg/kg/injection, schedule: Q01DX001 (ip), vehicle: other 159 % of control | dose: 15.0 mg/kg/injection, schedule: Q01DX001 (ip), vehicle: other 154 % of control

O=C(CC(=O)c1ccccc1)c1ccccc1.O=C(CC(=O)c1ccccc1)c1ccccc1.O=C(CC(=O)c1ccccc1)c1ccccc1.[Cr]
inactive: [9] 93 % of control | [10] 101 % of control | [11] 104 % of control

Cc1ccc(NC(=O)c2ccc(Cl)cc2)cc1Cl
inactive: [4] 105 % of control | [1] 94 % of control | [5] 98 % of control | [2] 94 % of control | [20] 92 % of control | [3] 104 % of control

O=S(=O)(O)c1ccc(S)cc1
inactive: dose: 75.0 mg/kg/injection, schedule: Q01DX001 (ip), vehicle: other 117 % of control

O=C(O)Cc1ccccc1
inactive: dose: 18.75 mg/kg/injection, schedule: Q01DX009 (ip), vehicle: acetone 95 % of control | dose: 37.5 mg/kg/injection, schedule: Q01DX009 (ip), vehicle: acetone 90 % of control | dose: 37.5 mg/kg/injection, schedule: Q04DX003 (ip), vehicle: acetone 96 % of control | dose: 75.0 mg/kg/injection, schedule: Q01DX001 (ip), vehicle: carboxymethylcellulose (CMC) 96 % of control | dose: 75.0 mg/kg/injection, schedule: Q01DX001 (ip), vehicle: saline 95 % of control | dose: 75.0 mg/kg/injection, schedule: Q01DX009 (ip), vehicle: acetone 90 % of control | dose: 75.0 mg/kg/injection, schedule: Q04DX003 (ip), vehicle: acetone 91 % of control | dose: 150.0 mg/kg/injection, schedule: Q01DX001 (ip), vehicle: carboxymethylcellulose (CMC) 94 % of control | dose: 150.0 mg/kg/injection, schedule: Q01DX001 (ip), vehicle: saline 93 % of control | dose: 150.0 mg/kg/injection, schedule: Q04DX003 (ip), vehicle: acetone 98 % of control

CC1C(=O)Nc2ccccc2N1C(=O)CN1CCCC1 (stereo unspecified)
inactive: dose: 50.0 mg/kg/injection, schedule: Q01DX009 (ip), vehicle: saline 98 % of control | [18] 101 % of control | [15] 96 % of control | [19] 106 % of control | [16] 96 % of control | [17] 94 % of control

CCOC(=O)[CH2][Sn]([Br])([Br])[CH2]C(=O)OCC
inactive: [7] 94 % of control | [8] 89 % of control

CC(=O)Nc1ccc(C(=O)C(O)c2ccc(NC(C)=O)cc2)cc1 (stereo unspecified)
inactive: dose: 50.0 mg/kg/injection, schedule: Q01DX001 (ip), vehicle: other 100 % of control | dose: 100.0 mg/kg/injection, schedule: Q01DX001 (ip), vehicle: other 92 % of control | dose: 200.0 mg/kg/injection, schedule: Q01DX001 (ip), vehicle: other 105 % of control | dose: 400.0 mg/kg/injection, schedule: Q01DX001 (ip), vehicle: other 88 % of control
